Assays:
Format in all cases: in vivo
[1] = system: mutant rice (ML0831265-01493, ATCC deposit PTA-12933, mutation G2096S); experiment: Tank mixes of safeners with propaquizafop or quizalofop: regrowth of mutant rice
Experimental: (§1) Seeds of a proprietary ACCase resistant rice variety, i.e. RTA1, was used. RTA1, ML0831265-01493 (ATCC deposit PTA-12933, mutation G2096S) variety rice seeds were supplied by RiceTec. RTA1 rice cultivar contains a single mutation in the ACCase gene that confer ACCase resistance. The mutation makes the enzyme insensitive to quizalofop.
(§2) Mutant rice seeds were planted in commercial greenhouse soil mix in 10×10×10 cm plastic pots. 250 mL of soil was put into each pot, then the seeds were placed on top of the soil and the seeds were covered with 100-150 mL of soil. Approximately 8-10 seeds were planted per pot. The pots were then watered with 100 mL of a mixture of Miracle Grow and Fertiplus (iron supplement). The pots were placed in the greenhouse (38° C./20° C. day/night, 14 h photoperiod with supplemental light). The average light intensity in the greenhouse was 150 μM/m^2/sec.
Plants were grown until 10 days after planting and then the pots were transferred to trays and the plants were grown under water. :Plants were treated when they reached the 3-5 leaf stage.
Safeners were tank mixed with the herbicide in the spray bottle.
(§3) Four days after treatment, the tops of the plants were cut off so that approximately 2.5 cm of plant from the top of the soil remain. The plants were allowed to regrow for 3 days at which time the amount of regrowth was weighed by measuring the amount of fresh weight of tissue that regrew. Comparing the weight of regrowth of shoots after cutting indicates the level of phytotoxicity the herbicide had on the mutant rice plant and the increased level of resistance of the mutant rice to the herbicide when the herbicide was applied in combination with the safener.
The safeners were applied in various w/w ratios with the ACCase inhibiting herbicides to the rice plant.

[2] = system: ACCase inhibitor resistant rice seeds (ML0831265-01493 (ATCC deposit PTA-12933, mutation G2096S)); experiment: Safener seed treatment with propaquizafop or quizalofop: regrowth of resistant rice
Experimental: as §1, §2
Plants were grown until 10 days after planting and then the pots were transferred to trays and the plants were grown under water. :Plants were treated when they reached the 3-5 leaf stage. […]
as §3
The safeners were also applied in various w/w ratios of the ACCase inhibiting herbicides to the rice seeds.

[3] = system: mutant rice; experiment: Regrowth of mutant rice under low and high light intensity
Description: as §3

[4] = system: HPPD resistant rice variety; experiment: HPPD herbicides with isoxadifen, regrowth of HPPD resistant mutant rice
Experimental: The rice cultivar contains mutation(s) in the HPPD gene which makes the enzyme insensitive to mesotrione and/or tembotrione and/or isoxaflutole.
Seed of HPPD resistant rice variety is planted in a commercial greenhouse soil mix in 10×10×10 cm plastic pots. 250 mL of soil is put into each pot, then the seed is placed on top of the soil and the seed is covered with 100-150 mL of soil. Approximately 8-10 seeds are planted per pot. The pots are then watered with 100 mL of a mixture of Miracle Grow and Fertiplus (iron supplement). The pots are placed in the greenhouse (38° C./20° C. day/night, 14 h photoperiod with supplemental light). The average light intensity in the greenhouse was 150 μM/m^2/sec.
Plants are grown until 10 days after planting and then the pots are transferred to trays and plants are grown under water. Plants are treated when they reach the 3-5 leaf stage.
Generally, plants are treated with 50-250 g/ha of mesotrione or tembotrione or isoxaflutole through a moving nozzle spray system in a spray volume of 200 l/ha or 187 l/ha. Isoxadifen is tank mixed with the herbicide in the spray bottle. The weight ratio of the safener to the herbicide in the tank mix is from 1:1 to 1:5.
Four days after reatment, the tops of the plants are cut off to approximately 3 cm from the top of the soil. The plants are allowed to regrow for 7 days at which time the amount of regrowth is measured by cutting any growth above 3 cm above the top of soil and weighing the tissue that regrew.
Efficacy test is conducted to determine the effect of mesotrione on mutant rice in the presence of isoxadifen.
The weight the regrown shoot on mutant rice applied with mesotrione is compared with the weight of regrown shoot on mutant rice applied with mesotrione and isoxadifen at various rates.

[5] = system: weedy rice; experiment: Regrowth of weedy rice after quizalofop ethyl; conditions: at the rates tested
Description: The amount of plant regrowth observed for the ACCase resistant rice is compared to the amount of regrowth observed for the weedy rice. The weedy rice was killed by quizalofop ethyl at the rates tested, so there was no regrowth.

[6] = system: wild type rice (Non-Traited Rice); experiment: Quizalofop dose response with or without isoxadifen, regrowth, wild type rice; conditions: calculated effect of safener alone, quizalofop 5.2 g/ha
[7] = system: herbicide resistant rice crop (G2096S substitution, ML0831265-01493); experiment: Quizalofop dose response with or without isoxadifen, regrowth, herbicide resistant rice
Experimental: Four days after treatment, the tops of the plants were cut off so that approximately 2.5 cm of plant from the top of the soil remain. The plants were allowed to regrow for 3 days at which time the amount of regrowth was weighed by measuring the amount of fresh weight of tissue that regrew.
The improvement in regrowth was calculated by subtracting the regrowth from a) wild type rice and wild type rice with isoxadifen; b) herbicide resistant rice; and c) herbicide resistant rice and isoxadifen.
Calculations were done for each application rate of quizalofop. The efficacy of safener alone and mutation alone on decreasing herbicide effect/increasing herbicide resistance were calculated. The relative fresh weight re-growth is the percentage of activity (for Colby).
The re-growth data was implemented in curve and the synergistic effect was calculated.
in which E represents the percentage of regrowth expected for the application of safener on mutant rice crop at the defined doses of herbicide. X is the percentage of regrowth for the application of safener on wildtype rice crop at the defined doses of herbicide. Y is the percentage of regrowth for mutant rice crop at the defined doses of herbicide without safener application. When the percentage of regrowth observed for the application of safener on mutant rice crop at the defined doses of herbicide is greater than expected as calculated using the Colby equation, there is a synergistic effect.

[8] = isoxaflutole with isoxadifen vs same mutant rice not treated with isoxadifen
[9] = mesotrione with isoxadifen vs same mutant rice not treated with isoxadifen
[10] = tembotrione with isoxadifen vs same mutant rice not treated with isoxadifen

For `O=C(O)C1=NOC(c2ccccc2)(c2ccccc2)C1` [Isoxadifen, isoxadifen], the “Regrowth (fresh weight mg)” value ([1]; tank mix with propaquizafop 50 g/ha, safener 12.5 g/ha) was 38 mg, the “Regrowth (fresh weight mg)” value ([1]; tank mix with propaquizafop 50 g/ha, safener 25 g/ha) was 258 mg and the “Regrowth (fresh weight mg)” value ([1]; tank mix with propaquizafop 50 g/ha, safener 50 g/ha) was 310 mg. For the same compound, the “Regrowth (fresh weight mg)” value ([1]; tank mix with propaquizafop 50 g/ha, safener 100 g/ha) was 488 mg, the “Regrowth (fresh weight mg)” value ([1]; tank mix with quizalofop 40 g/ha, safener 12.5 g/ha) was 87 mg and the “Regrowth (fresh weight mg)” value ([1]; tank mix with quizalofop 40 g/ha, safener 25 g/ha) was 285 mg. The “Regrowth (fresh weight mg)” value ([1]; tank mix with quizalofop 40 g/ha, safener 50 g/ha) was 335 mg, the “Regrowth (fresh weight mg)” value ([1]; tank mix with quizalofop 40 g/ha, safener 100 g/ha) was 462 mg and the “Regrowth (fresh weight mg)” value ([2]; propaquizafop, safener seed treatment 0.5 g/kg of seed) was 133 mg. For the same compound, the “Regrowth (fresh weight mg)” value ([2]; propaquizafop, safener seed treatment 1 g/kg of seed) was 170 mg, the “Regrowth (fresh weight mg)” value ([2]; propaquizafop, safener seed treatment 2 g/kg of seed) was 298 mg and the “Regrowth (fresh weight mg)” value ([2]; quizalofop, safener seed treatment 0.5 g/kg of seed) was 165 mg. The “Regrowth (fresh weight mg)” value ([2]; quizalofop, safener seed treatment 1 g/kg of seed) was 103 mg, the “Regrowth (fresh weight mg)” value ([2]; quizalofop, safener seed treatment 2 g/kg of seed) was 80 mg and the “regrowth of the mutant rice” value ([3]; high light intensity, quizalofop with isoxadifen, any of the rates tested) was “regrowth was not significant affected”. For the same compound, the “Regrowth (mg FW)” value ([3]; high light intensity, with safener, herbicide 0 g/ha) was 540 mg FW, the “reduction in growth of the mutant rice” value ([3]; low light intensity, 40 g/ha quizalofop with 100 g/ha isoxadifen) was “less than 20%” and the “Regrowth (mg FW)” value ([3]; low light intensity, with safener, herbicide 0 g/ha) was 183 mg FW. The “level of resistance of the mutant rice to isoxaflutole” value [4, 8] was “significantly increases the level of resistance”, the “phytotoxicity of isoxaflutole on the mutant rice” value [4, 8] was “significantly reduces the phytotoxicity” and the “level of resistance of the mutant rice to mesotrione” value [4, 9] was “significantly increases the level of resistance”. For the same compound, the “phytotoxicity of mesotrione on the mutant rice” value [4, 9] was “significantly reduces the phytotoxicity”, the “level of resistance of the mutant rice to tembotrione” value [4, 10] was “significantly increases the level of resistance” and the “phytotoxicity of tembotrione on the mutant rice” value [4, 10] was “significantly reduces the phytotoxicity”.

For `CCOC(=O)[C@@H](C)Oc1ccc(Oc2cnc3cc(Cl)ccc3n2)cc1` [Quizalofop, quizalofop P-ethyl], the “Regrowth (fresh weight mg)” value ([1]; quizalofop 40 g/ha, no safener) was 70 mg, the “Regrowth (fresh weight mg)” value ([2]; quizalofop, seeds without safener) was 107 mg and the “Effect on weedy rice (regrowth)” value [5] was “killed”. For the same compound, the “inhibition of growth of the mutant rice” value ([3]; high light intensity (800-1000 uM/m2/sec), 40 g/ha quizalofop, no safener) was “no inhibition of growth”, the “reduction in growth of the mutant rice” value ([3]; high light intensity, 70 g/ha quizalofop, no safener) was “over 80%” and the “Regrowth (mg FW)” value ([3]; high light intensity, no safener, herbicide 30 g/ha) was 447 mg FW. The “Regrowth (mg FW)” value ([3]; high light intensity, no safener, herbicide 40 g/ha) was 533 mg FW, the “Regrowth (mg FW)” value ([3]; high light intensity, no safener, herbicide 50 g/ha) was 220 mg FW and the “Regrowth (mg FW)” value ([3]; high light intensity, no safener, herbicide 60 g/ha) was 107 mg FW. For the same compound, the “Regrowth (mg FW)” value ([3]; high light intensity, no safener, herbicide 70 g/ha) was 76.7 mg FW, the “Regrowth (mg FW)” value ([3]; high light intensity, with safener (isoxadifen), herbicide 30 g/ha) was 630 mg FW and the “Regrowth (mg FW)” value ([3]; high light intensity, with safener (isoxadifen), herbicide 40 g/ha) was 533 mg FW. For the same compound, the “Regrowth (mg FW)” value ([3]; high light intensity, with safener (isoxadifen), herbicide 50 g/ha) was 603 mg FW, the “Regrowth (mg FW)” value ([3]; high light intensity, with safener (isoxadifen), herbicide 60 g/ha) was 427 mg FW and the “Regrowth (mg FW)” value ([3]; high light intensity, with safener (isoxadifen), herbicide 70 g/ha) was 540 mg FW. The “reduction in growth of the mutant rice” value ([3]; low light intensity (150 uM/m2/sec), 40 g/ha quizalofop, no safener) was 80%, the “Regrowth (mg FW)” value ([3]; low light intensity, no safener, herbicide 30 g/ha) was 30 mg FW and the “Regrowth (mg FW)” value ([3]; low light intensity, no safener, herbicide 40 g/ha) was 0 mg FW. The “Regrowth (mg FW)” value ([3]; low light intensity, no safener, herbicide 50 g/ha) was 0 mg FW, the “Regrowth (mg FW)” value ([3]; low light intensity, no safener, herbicide 60 g/ha) was 0 mg FW and the “Regrowth (mg FW)” value ([3]; low light intensity, no safener, herbicide 70 g/ha) was 0 mg FW. For the same compound, the “Regrowth (mg FW)” value ([3]; low light intensity, with safener (isoxadifen), herbicide 30 g/ha) was 117 mg FW, the “Regrowth (mg FW)” value ([3]; low light intensity, with safener (isoxadifen), herbicide 40 g/ha) was 100 mg FW and the “Regrowth (mg FW)” value ([3]; low light intensity, with safener (isoxadifen), herbicide 50 g/ha) was 150 mg FW. The “Regrowth (mg FW)” value ([3]; low light intensity, with safener (isoxadifen), herbicide 60 g/ha) was 50 mg FW, the “Regrowth (mg FW)” value ([3]; low light intensity, with safener (isoxadifen), herbicide 70 g/ha) was 30 mg FW and the “Efficacy at ED50 of mutant- 5.2 g/ha (%)” value [6] was 26%. For the same compound, the “Calculated efficacy base on Colby (%)” value ([7]; expected for mutant & safener, quizalofop 5.2 g/ha) was 63%, the “additive effect of safener and mutation, increase in ED50” value ([7]; expected, compared to wildtype rice without safener) was 5.1 fold and the “observed increase in ED50” value ([7]; herbicide resistant rice with safener compared to wildtype rice without safener) was 31.4 fold. For the same compound, the “Observed efficacy (%)” value ([7]; mutant & safener, quizalofop 5.2 g/ha) was 92%, the “Efficacy at ED50 of mutant- 5.2 g/ha (%)” value ([7]; mutant alone, quizalofop 5.2 g/ha) was 50% and the “increase in tolerance to herbicide (ED50) by the mutation” value ([7]; mutant rice vs wildtype rice, no safener) was 2.4 fold.
